In patent publication US20210391038A1, “SPECIFICALLY-SHAPED CRYSTAL OF COMPOUND AND METHOD FOR PRODUCING SAME” (TOWA PHARMACEUTICAL CO., LTD., priority 2018, published 2021):
Counter-ions that a name gives are not always drawn. Like-named read-outs stand apart in the source and are kept apart here.

How the values were obtained:
Format in all cases: physicochemical
[1] = Particle size distribution (d50, sharpness index); set-up: key to sharpness index of the crystal thus obtained / sharpness index of the fine powders: calculated by formula from d10, d50, d90; 1.0 = most uniform particle size
Text: d10 in the present description is a value obtained from a particle size distribution analyzer, and represents a particle size of a particle corresponding to 10% of accumulation from the smaller particle side in the particle size distribution based on the volume.
d50 in the present description is a value obtained from a particle size distribution analyzer, and represents a particle size of a particle corresponding to 50% of accumulation from the smaller particle side in the particle size distribution based on the volume.
“Sharpness index” in the present description is an index representing the uniformity of a particle size of a particle in a powder, and a sharpness index of 1.0 represents a powder having the most uniform particle size. The closer the sharpness index is to 1.0, the more the particle size of the powder is uniform. Specifically, the sharpness index represents a value calculated using the following formula from the values of d10, d50, and d90 measured by a particle size distribution analyzer:
Images for measuring the number of particles were obtained by a scanner GT-X830 manufactured by SEIKO EPSON CORPORATION. The powder X-ray diffraction (XRD) was measured using a desktop X-ray diffraction device MiniFlex300 manufactured by Rigaku Corporation. […] The particle strength was measured using a particle hardness measuring device NEW GRANO manufactured by OKADA SEIKO CO., LTD. […] The purity of a compound was measured by a high performance liquid chromatograph (LC-20A) manufactured by Shimadzu Corporation.

[2] = Sphericity from SEM images (ImageJ); set-up: key: 1 = true sphere; closer to 1 = more spherical; mean of ≥5 particles
Text: In the present description, “spherulite” means a crystal aggregate (polycrystal) which has a radial or concentric thin layered structure and has a spherical outer shape. Whether the crystal obtained by the method of the present invention is a spherulite or not can be determined, for example, by observing the outer shape of the crystal using SEM. For example, it can be discriminated by cutting the crystal aggregate and observing the internal structure thereof using SEM. The sphericity of the spherulite obtained by the method of the present invention is usually 0.60 or more, preferably 0.70 or more, more preferably 0.80 or more, particularly preferably 0.90 or more, and most preferably 0.95 or more. The sphericity can be calculated by the following method.
When an image of particles taken by SEM is analyzed using image processing software ImageJ, a coordinate group representing the position of pixels forming the outline of a particle is obtained. The length of the coordinate group is defined as N, and one pixel coordinate of each outline is defined as p[i] (1≤i≤N). The angle between a straight line l(k) connecting two points p[k] and p[k+N/D] and a straight line m(k) connecting two points p[k+N/D] and p[k+2N/D] is defined as θ(k) (−180°<θ<180°) (1≤k≤N, 1≤D≤N). D corresponds to the number of partitions of the outline. When N/D is not a natural number, the value is defined as the quotient obtained by dividing N by D. By calculating this angle with k=1 to N, N pieces of θ value can be obtained.
When the particle is a true sphere, θ(k) is 360/D, and the closer the particle is to a true sphere, the closer θ(k) is to this value. The error between θ(k) and the true value 360/D is evaluated by the root-mean-square error (RMSE) of the following formula:
Using the RMSE value of when D is 10 (θ(k)=36°), the sphericity is defined by the following formula: […]
The sphericity is 1 in a true sphere, and the closer the particle is to a true sphere, the closer the sphericity is to 1. Meanwhile, the sphericity of an ellipse whose long axis is infinitely long is zero. The sphericity is measured for five or more particles to calculate the mean. This mean is defined as the sphericity of each sample (see FIGS. 42 and 43).

[3] = Measurement of critical degree of supersaturation of spherulite
Text: “Supersaturated solution” in the present description means a solution in a state of containing a solute exceeding the solubility. As the degree of supersaturation, “degree of supersaturation” can be used. Regarding the degree of supersaturation, when the concentration (mass concentration (g/g)) of a compound dissolved in a supersaturated solution is defined as C and the solubility of the compound is defined as Cs, the degree of supersaturation S can be represented by the following formula: […]
“Critical degree of supersaturation” in the present description means the lowest degree of supersaturation required to obtain a specifically-shaped crystal. […] The value of a critical degree of supersaturation varies depending on the shape of a crystal. For example, all of values of a critical degree of supersaturation required to obtain a plate crystal, a critical degree of supersaturation required to obtain a needle crystal, and a critical degree of supersaturation required to obtain a spherulite are different. The critical degree of supersaturation required to obtain a spherulite is higher than the critical degree of supersaturation required to obtain a plate crystal or a needle crystal.
The actual measured value of the critical degree of supersaturation (S*) can be measured as follows:
(1) 100 particles are observed by SEM. (2) 5 to 10 particles whose shape is close to a desired specific shape are selected, and the shape is evaluated. In particular, when the desired specific shape is a sphere, the sphericity is evaluated. (3) Based on the evaluation index of the shape, whether the selected particles have the desired specific shape or not is determined. In particular, when the desired specific shape is a sphere, the case where the sphericity is 0.60 or more is determined as a spherulite. (4) The above-mentioned operation is performed for each sample having a different degree of supersaturation during crystallization, and the minimum value of a degree of supersaturation having the specifically-shaped particles is determined as the critical degree of supersaturation. The difference between the maximum value of a degree of supersaturation not having the specifically-shaped particles and the critical degree of supersaturation should be 20% or less.
The critical degree of supersaturation of a spherulite of ketotifen fumarate was determined as follows. To 2.0 g of ketotifen fumarate, 10 mL (5 v/w) of methanol was added, followed by reflux to completely dissolve. This solution was added dropwise to 50 mL of isopropanol at 20° C. to prepare a supersaturated solution of ketotifen fumarate. The degree of supersaturation of the supersaturated solution at the end of dropwise addition was 9.0. The supersaturated solution was crystallized. The crystal was collected by filtration, followed by drying under reduced pressure at 40° C., thus obtaining a crystal of ketotifen fumarate.
Similarly, when a substrate and a solvent different from those mentioned above are used, a plurality of samples having a different degree of supersaturation are prepared and crystallized, and then the critical degree of supersaturation of the spherulite was measured.

[4] = dry particle size distribution, volume based
[5] = SEM image analysis, mean of particles

Cc1cc(N2CCN([C@@H]3CN[C@H](C(=O)N4CCSC4)C3)CC2)n(-c2ccccc2)n1 [Example 22, teneligliptin hydrobromide hydrate]
sharpness index of the crystal thus obtained ([1]; calculated from d10, d50, d90): 3.77
d50 of the crystal thus obtained [1, 4]: 33.5 μm
sphericity of the spherulite [2, 5]: 0.93±0.04

COC(=O)[C@H](c1ccccc1Cl)N1CCc2sccc2C1 [Example 16, clopidogrel sulfate]
sharpness index of the crystal thus obtained ([1]; calculated from d10, d50, d90): 1.7
d50 of the crystal thus obtained [1, 4]: 133 μm
sphericity of the spherulite [2, 5]: 0.96±0.02

N#C[C@@H]1CCCN1C(=O)CNC12CC3CC(CC(O)(C3)C1)C2 [Example 20, vildagliptin]
sphericity of the spherulite [2, 5]: 0.99±0.01

COc1ccc2[n-]c([S@@+]([O-])Cc3ncc(C)c(OC)c3C)nc2c1.COc1ccc2[n-]c([S@@+]([O-])Cc3ncc(C)c(OC)c3C)nc2c1.O.O.O.[Mg+2] [Example 10(1), esomeprazole magnesium trihydrate]
sharpness index of the crystal thus obtained ([1]; calculated from d10, d50, d90, trihydrate): 1.51
d50 of the crystal thus obtained ([1]; dry particle size distribution, volume based, trihydrate): 39.9 μm
d50 ([1]; samples of filtration test (Table 7), trihydrate): 39.9 μm
sphericity of the spherulite ([2]; SEM image analysis, mean of particles, trihydrate): 0.97±0.01

O.O.O.O.O.O.O.O.O=C([O-])[O-].O=C([O-])[O-].O=C([O-])[O-].[La+3].[La+3] [Example 17, lanthanum carbonate octahydrate]
d50 of the crystal thus obtained [1]: 105 μm
sharpness index of the crystal thus obtained [1]: 1.4
sphericity of the spherulite [2]: 0.69±0.08

NC(CCC(=O)O)C(=O)O (racemic) [Example 14, DL-glutamic acid]
sphericity of the spherulite [2, 5]: 0.95±0.03

Cn1c(=O)c2[nH]cnc2n(C)c1=O.O.O.O.O.[Mg] [Example 26, theophylline magnesium salt tetrahydrate]
sharpness index of the crystal thus obtained ([1]; calculated from d10, d50, d90): 3.06
d50 of the crystal thus obtained [1, 4]: 43.0 μm
sphericity of the spherulite [2, 5]: 0.95±0.02

CC[C@H]1OC(=O)[C@H](C)[C@@H](O[C@H]2C[C@@](C)(OC)[C@@H](O)[C@H](C)O2)[C@H](C)[C@@H](O[C@@H]2O[C@H](C)C[C@H](N(C)C)[C@H]2O)[C@](C)(OC)C[C@@H](C)C(=O)[C@H](C)[C@@H](O)[C@]1(C)O [Example 13, clarithromycin]
sharpness index of the crystal thus obtained ([1]; calculated from d10, d50, d90): 4.6
d50 of the crystal thus obtained [1, 4]: 16 μm
sphericity of the spherulite [2, 5]: 0.87±0.08

CCCCCCOC(=O)N=C(N)c1ccc(NCc2nc3cc(C(=O)N(CCC(=O)OCC)c4ccccn4)ccc3n2C)cc1 [Example 24, dabigatran etexilate methanesulfonate]
sharpness index of the crystal thus obtained ([1]; calculated from d10, d50, d90): 2.61
d50 of the crystal thus obtained [1, 4]: 61.3 μm
sphericity of the spherulite [2, 5]: 0.95±0.03

Cc1c(OCC(F)(F)F)ccnc1C[S+]([O-])c1nc2ccccc2[nH]1 (stereo not shown) [Example 11, lansoprazole]
sphericity of the spherulite [2, 5]: 0.94±0.04

Cc1cc(N2CCN([C@@H]3CN[C@H](C(=O)N4CCSC4)C3)CC2)n(-c2ccccc2)n1 [Teneligliptin hydrobromide hydrate]
actual measured value of the critical degree of supersaturation [3]: 7.9
Critical degree of supersaturation S Experimental value ([3]; entry 32, solvent 1 MeOH, solvent 2 1-BuOH, solvent 2/solvent 1 ratio 10, crystallization 0 °C): 5.2
Critical degree of supersaturation S Experimental value ([3]; entry 33, solvent 1 MeOH, solvent 2 1-BuOH, solvent 2/solvent 1 ratio 10, crystallization 20 °C): 7.9
Critical degree of supersaturation S Experimental value ([3]; entry 34, solvent 1 MeOH, solvent 2 1-BuOH, solvent 2/solvent 1 ratio 10, crystallization 40 °C): 12.6

O=C(O)CCCN1CCC(O[C@@H](c2ccc(Cl)cc2)c2ccccn2)CC1.O=S(=O)(O)c1ccccc1 [Bepotastine besilate]
actual measured value of the critical degree of supersaturation [3]: 36.4
Critical degree of supersaturation S Experimental value ([3]; entry 57, solvent 1 EtOH, solvent 2 AcOiPr, solvent 2/solvent 1 ratio 10, crystallization 0 °C): 36.4

COc1ccc2[n-]c([S+]([O-])Cc3ncc(C)c(OC)c3C)nc2c1.COc1ccc2[n-]c([S+]([O-])Cc3ncc(C)c(OC)c3C)nc2c1.[Mg+2] (stereo not shown) [Esomeprazolc magnesium hydrate]
Critical degree of supersaturation S Experimental value ([3]; entry 1, solvent 1 MeOH, solvent 2 H2O, solvent 2/solvent 1 ratio 1, crystallization 35 °C): 1.4

N#C[C@@H]1CCCN1C(=O)CNC12CC3CC(CC(O)(C3)C1)C2 [Vildagliptin]
actual measured value of the critical degree of supersaturation [3]: 9.2
Critical degree of supersaturation S Experimental value ([3]; entry 39, solvent 1 EtOH, solvent 2 TBME, solvent 2/solvent 1 ratio 10, crystallization 0 °C): 9.2
Critical degree of supersaturation S Experimental value ([3]; entry 40, solvent 1 EtOH, solvent 2 TBME, solvent 2/solvent 1 ratio 10, crystallization 10 °C): 7
Critical degree of supersaturation S Experimental value ([3]; entry 41, solvent 1 MEK, solvent 2 Toluene, solvent 2/solvent 1 ratio 10, crystallization 0 °C): 8.5
Critical degree of supersaturation S Experimental value ([3]; entry 42, solvent 1 IPA, solvent 2 TBME, solvent 2/solvent 1 ratio 10, crystallization 0 °C): 11
Critical degree of supersaturation S Experimental value ([3]; entry 43, solvent 1 IPA, solvent 2 TBME, solvent 2/solvent 1 ratio 10, crystallization 10 °C): 11.6
Critical degree of supersaturation S Experimental value ([3]; entry 44, solvent 1 IPA, solvent 2 TBME, solvent 2/solvent 1 ratio 10, crystallization 20 °C): 11.9

CN1CCC(=C2c3ccccc3CC(=O)c3sccc32)CC1 [Example 1, ketotifen fumarate]
sphericity of the spherulite [2, 5]: 0.78±0.02
